Test results from PubChem BioAssay (NCI).
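How tested: cells in 96-well plates exposed to compound for 48 hours at five concentrations. TGI marks complete inhibition of growth.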

Tests used:
Assay in all cases: NCI-60 cell line screen, 48 h
UACC-257 melanoma = test system: UACC-257 melanoma
SK-OV-3 ovarian = test system: SK-OV-3 ovarian
SR leukemia = test system: SR leukemia
SK-MEL-2 melanoma = test system: SK-MEL-2 melanoma
SK-MEL-5 melanoma = test system: SK-MEL-5 melanoma
UACC-62 melanoma = test system: UACC-62 melanoma
MDA-MB-231 breast = test system: MDA-MB-231 breast
OVCAR-3 ovarian = test system: OVCAR-3 ovarian
EKVX NSCLC = test system: EKVX NSCLC
ACHN renal = test system: ACHN renal

Row | SMILES | TGI (UACC-257 melanoma) [µM] | TGI (SK-OV-3 ovarian) [µM] | TGI (SR leukemia) [µM] | TGI (SK-MEL-2 melanoma) [µM] | TGI (SK-MEL-5 melanoma) [µM] | TGI (UACC-62 melanoma) [µM] | TGI (MDA-MB-231 breast) [µM] | TGI (OVCAR-3 ovarian) [µM] | TGI (EKVX NSCLC) [µM] | TGI (ACHN renal) [µM]
1 | O=C1c2cc3ccccc3cc2C2(c3ccc(Cl)cc3)N[C@H]3CCCC[C@@H]3N12 (stereo not given in full) | 48 | 31.9 | 48.7 | 35.4 | 42.8 | 35.2 | 36.2 | 49 | 26.8 | 38.7
2 | COc1cccc2cc(C(N)=O)c(=N)oc12 | > 100 | > 100 | > 100 | 60.7 | > 100 | > 100 | > 100 | > 100 | > 100 | > 100
3 | CC(=O)OCC1OC(n2c(N)c(C#N)c(-c3ccccc3)c(C#N)c2=S)C(OC(C)=O)C(OC(C)=O)C1OC(C)=O (stereo not given) | > 100 | > 100 | > 100 | > 100 | > 100 | > 100 | > 100 | > 100 | > 100 | > 100
4 | O=C1C2C=CC1C1C(=O)OC(=O)C21 (stereo not given) | > 100 | > 100 | > 100 | > 100 | > 100 | > 100 | > 100 | > 100 | > 100 | > 100
5 | CC(C)C(C/C=C1/CC(CO)(COC(=O)CC(C(C)C)C(C)C)OC1=O)C(C)C (stereo not given) | 30.3 | 30.5 | > 50.3 | 30.1 | 22.3 | 30.1 | 18.5 | 26.7 | 19.4 | 18.2
6 | Cc1ccc(/C=C/C(=O)c2c([O-])on[n+]2-c2ccccc2)cc1 | 16 | > 100 | > 27.5 | 5.39 | > 32.5 | 3.12 | > 75.2 | 6.92 | 14.6 | 3.55
7 | CN1C(c2ccccc2)=CC(=O)C(O)=C(c2ccccc2)S1(=O)=O | > 100 | > 100 | > 100 | > 100 | > 100 | > 100 | > 100 | > 100 | > 100 | > 100
8 | CN1CCC2(CC1)C(=O)N(N1CCCCCC1)C(=O)N2c1ccccc1 | > 100 | > 100 | > 100 | > 100 | > 100 | > 100 | > 100 | > 100 | > 100 | > 100
9 | Cc1ccc2c(c1)NC(=O)CCSSCCC(=O)N2 | > 100 | > 100 | > 100 | > 100 | > 100 | > 100 | > 100 | > 100 | > 100 | > 100
10 | CC(C)CCC1(O)O[C@H]2C[C@H]3[C@@H]4CCC5CC(=O)C=C[C@]5(C)[C@H]4CC[C@]3(C)[C@H]2[C@@H]1C (stereo not given in full) | 28.3 | 32.9 | 22.6 | 29.6 | 26.7 | 28 | 28.2 | 22.9 | 34.7 | 26.6
11 | CC(=O)Oc1ccc2c(c1)c1c(=O)oc(N(C)C)nc1n2Cc1ccccc1 | > 100 | > 100 | > 100 | > 100 | > 100 | > 100 | > 100 | > 100 | > 100 | > 100
12 | NNC(=O)c1c(Cl)c(Cl)c(Cl)c(Cl)c1-c1nc2ccccc2[nH]1 | 28.1 | 59.2 | 15.6 | 29.4 | 29.9 | 24.7 | > 100 | 24.4 | 45.3 | 67.2
13 | O=C(CSc1nc(=O)[nH]c2nc[nH]c12)Nc1ccccc1 | > 100 | > 100 | > 100 | > 100 | > 100 | > 100 | > 100 | > 100 | > 100 | > 100
14 | COc1ccc(C2SCC(=O)N2c2ccc(-c3ccc(-n4c(-c5ccccc5)nc5ccccc5c4=O)cc3)cc2)cc1 (stereo not given) | > 100 | > 100 | > 100 | 86.7 | > 100 | > 100 | > 100 | 46.8 | > 100 | > 100
15 | Cc1nc2c(o1)C(=O)c1ccccc1/C2=N/c1ccccn1 | 26.9 | > 100 | 97.3 | 43.6 | 30.4 | 34.9 | 69.3 | 49.3 | 41.6 | 39.8
